“And” between values parts separate entries of the source, which are not always exact repeats. Equal entries are not always repeated.
Tested on: 233499-124-R-J3-PDC complex spheroid viability
Assay: Anticancer human tumor 233499-124-R-J3-PDC patient-derived colon adenocarcinoma cell line growth inhibition [CLK]
Conditions: for viability, T/C: stronger effect = lower value
From the text: A high-throughput screen of multi-cell type tumor spheroids was designed to identify active combinations of […] and targeted small molecules. Complex spheroids include a stromal component modeled by human endothelial cells (HUVEC) and fibroblasts modeled by human mesenchymal stem cells (MSCs). The concentration ranges selected for each drug and investigational agent were based upon clinically achievable concentrations if the clinical Cmax of the agent was known.
Compounds. The drugs and investigational agents: cirtuvivint (SM08502; NSC835563), CC-671 (NSC850746), vemurafenib (NSC761431), tapotoclax (NSC804041), sotorasib (NSC818433), adagrasib (NSC831453), MRTX-1133 (NSC836407), BAY2416964 (NSC825713), copanlisib (NSC816437), inavolisib (NSC800729), abemaciclib (NSC768073), osimertinib (NSC779217), entinostat (NSC756642), eltanexor (KPT-8602, NSC794443), venetoclax (NSC766270), ceralasertib (NSC777638), bortezomib (NSC756655), olaparib (NSC753686), talazoparib (NSC767125), alisertib (NSC759677), peposertib (NSC802822), gemcitabine (NSC613327), 5-fluorouracil (NSC19893), SN-38 (NSC673596), oxaliplatin (NSC266046), paclitaxel (NSC125973), and doxorubicin (NSC123127), were obtained from the National Cancer Institute (NCI) Developmental Therapeutics Program Chemical Repository. The FDA-approved anticancer drug set is available from the Developmental Therapeutics Program at https://dtp.cancer.gov/organization/dscb/obtaining/available plates.htm. […] The stock solutions were prepared in dimethyl sulfoxide (DMSO, Sigma-Aldrich, St. Louis, MO, cat. D2650), except for the platinum complexes which were prepared in saline (Quality Biological, Gaithersburg, MD, cat. 114-055-101), at 800-fold the tested concentration and stored at -70 degrees C prior to their use. All drugs and investigational agents were tested over a range starting from a high concentration at or near the clinical Cmax and decreasing in half-log increments. If the clinical Cmax for an agent had not been determined, the highest concentration tested was 10 microM.
Cell Culture. All cells were maintained in an incubator at 37 degrees C and 5% CO2 with 95% humidity. The PDC lines were cultured according to standard operating procedures established by the NCI PDMR. Briefly, all PDCs were thawed and cultured in Matrigel-coated flasks prepared with a working solution of 1X Ham's F-12 nutrient mix, without supplementation (Invitrogen, Waltham, MA, cat. 11765054), 100 U/mL penicillin-streptomycin (Invitrogen, cat. 15140122), and 2.5% Matrigel (Corning Inc., Corning, NY, cat. 354248) for the first three passages. The 947758-054-R-J2-PDC line was cultured in 6B/Colon 1A media, which includes advanced DMEM/F-12 (Thermo Fisher Scientific, cat. 12634028), 10 mM HEPES (Thermo Fisher Scientific, cat. 15630080), 1X GlutaMAX supplement (Thermo Fisher Scientific, cat. 35050061), 0.1 mg/mL primocin (InvivoGen, cat. ant-pm-2), 10% defined fetal bovine serum, heat inactivated (HyClone Laboratories Inc., cat. SH30070.03HI), 1.25 mM N-Acetyl-L-cysteine (Sigma-Aldrich, cat. A9165), 10 mM nicotinamide (Sigma-Aldrich, cat. N0636), 1X B-27 supplement (Thermo Fisher Scientific, cat. 17504044), 1X N-2 supplement (Thermo Fisher Scientific, cat. 17502048), and 10 microM Y-27632 dihydrochloride (Tocris Bioscience, cat. 1254). The 876862-298-R-J1-PDC was cultured in 6E media, which includes all 6B/Colon 1A media components plus 50% L-WRN conditioned media (ATCC, cat. CRL-3276), 50 ng/mL recombinant human EGF recombinant protein (hEGF; Thermo Fisher Scientific, cat. PHG0311), 10 ng/mL recombinant human fibroblast growth factor 10 (hGFG-10; PeproTech, cat. 100-26), 1 ng/mL recombinant human fibroblast growth factor 2 (hFGF-2; PeproTech, cat. 100-18B), and 1 µM prostaglandin E2 (PGE2; Tocris, cat. 2296). The 227483-062-R1-J1-PDC line was cultured in Panc media, containing all 6E components except hFGF-2, with the addition of 500 nM SB-431542 (Selleckchem, cat. S1067) and 10 nM gastrin (Tocris, cat. 3006). […]

[1] = curve of first compound, second compound 0.0316 µM
[2] = curve of first compound, second compound 0.1 µM
[3] = curve of first compound, second compound 0.316 µM
[4] = curve of first compound, second compound 1 µM
[5] = curve of first compound, second compound 3.16 µM
[6] = curve of first compound, second compound 10 µM
[7] = second compound 0.0316 µM, first compound 0.0316 µM
[8] = second compound 0.0316 µM, first compound 0.1 µM
[9] = second compound 0.0316 µM, first compound 0.316 µM
[10] = second compound 0.0316 µM, first compound 1 µM
[11] = second compound 0.0316 µM, first compound 3.16 µM
[12] = second compound 0.0316 µM, first compound 10 µM
[13] = second compound 0.1 µM, first compound 0.0316 µM
[14] = second compound 0.1 µM, first compound 0.1 µM
[15] = second compound 0.1 µM, first compound 0.316 µM
[16] = second compound 0.1 µM, first compound 1 µM
[17] = second compound 0.1 µM, first compound 3.16 µM
[18] = second compound 0.1 µM, first compound 10 µM
[19] = second compound 0.316 µM, first compound 0.0316 µM
[20] = second compound 0.316 µM, first compound 0.1 µM
[21] = second compound 0.316 µM, first compound 0.316 µM
[22] = second compound 0.316 µM, first compound 1 µM
[23] = second compound 0.316 µM, first compound 3.16 µM
[24] = second compound 0.316 µM, first compound 10 µM
[25] = second compound 1 µM, first compound 0.0316 µM
[26] = second compound 1 µM, first compound 0.1 µM
[27] = second compound 1 µM, first compound 0.316 µM
[28] = second compound 1 µM, first compound 1 µM
[29] = second compound 1 µM, first compound 3.16 µM
[30] = second compound 1 µM, first compound 10 µM
[31] = second compound 3.16 µM, first compound 0.0316 µM
[32] = second compound 3.16 µM, first compound 0.1 µM
[33] = second compound 3.16 µM, first compound 0.316 µM
[34] = second compound 3.16 µM, first compound 1 µM
[35] = second compound 3.16 µM, first compound 3.16 µM
[36] = second compound 3.16 µM, first compound 10 µM
[37] = second compound 10 µM, first compound 0.0316 µM
[38] = second compound 10 µM, first compound 0.1 µM
[39] = second compound 10 µM, first compound 0.316 µM
[40] = second compound 10 µM, first compound 1 µM
[41] = second compound 10 µM, first compound 3.16 µM
[42] = second compound 10 µM, first compound 10 µM
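Further: spheroids exposed to the drug combinations for seven days.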
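Wherever viability, T/C is given: percent viability relative to DMSO vehicle control wells taken as 100%.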

COC1C=CCC(C)C(C)S(=O)(=O)NC(=O)c2ccc3c(c2)N(CC2CCC21)CC1(CCCc2cc(Cl)ccc21)CO3 (stereo not drawn) + CN1CCN(c2cc(C(=O)Nc3cc4cc(-c5cnn(C)c5)ccc4cn3)ccn2)CC1
IC50 [1]: 3.89 µM | IC50 [2]: 3.65 µM | IC50 [3]: 0.27 µM | IC50 [4]: < 0.0316 µM | IC50 [5]: < 0.0316 µM | IC50 [6]: < 0.0316 µM | viability, T/C [7]: 93.9% | viability, T/C [8]: 98% | viability, T/C [9]: 94.6% | viability, T/C [10]: 80.2% | viability, T/C [11]: 60.4% | viability, T/C [12]: 7.46% | viability, T/C [13]: 98.8% | viability, T/C [14]: 98.6% | viability, T/C [15]: 90.5% | viability, T/C [16]: 79.7% | viability, T/C [17]: 57.3% | viability, T/C [18]: 7.28% | viability, T/C [19]: 91.5% | viability, T/C [20]: 80% | viability, T/C [21]: 46.5% | viability, T/C [22]: 13.9% | viability, T/C [23]: 30.5% | viability, T/C [24]: 3.11% | viability, T/C [25]: 0.62% | viability, T/C [26]: 1.27% | viability, T/C [27]: 0.44% | viability, T/C [28]: 0.32% | viability, T/C [29]: 0.78% | viability, T/C [30]: 0.58% | viability, T/C [31]: 0.45% | viability, T/C [32]: 0.45% | viability, T/C [33]: 0.5% | viability, T/C [34]: 0.44% | viability, T/C [35]: 0.43% | viability, T/C [36]: 0.31% | viability, T/C [37]: 0.31% | viability, T/C [38]: 0.28% | viability, T/C [39]: 0.31% | viability, T/C [40]: 0.3% | viability, T/C [41]: 0.29% | viability, T/C [42]: 0.22%

C#Cc1c(F)ccc2cc(O)cc(-c3ncc4c(N5CC6CCC(C5)N6)nc(OCC56CCCN5CC(F)C6)nc4c3F)c12 (stereo not drawn) + CNC(=O)c1ccc(Nc2nc(OC3CCCC3)c3c(-c4ccc5nc(C)oc5c4)c[nH]c3n2)c(OC)c1
IC50 [1]: > 10 µM | IC50 [2]: > 10 µM | IC50 [3]: > 10 µM | IC50 [4]: > 10 µM | IC50 [5]: > 10 µM | IC50 [6]: 5.76 µM | viability, T/C [7]: 98.8% | viability, T/C [8]: 98.2% | viability, T/C [9]: 86.5% | viability, T/C [10]: 91% | viability, T/C [11]: 75.9% | viability, T/C [12]: 88.7% | viability, T/C [13]: 76.5% | viability, T/C [14]: 62.8% | viability, T/C [15]: 72.7% | viability, T/C [16]: 75.8% | viability, T/C [17]: 74.3% | viability, T/C [18]: 57.7% | viability, T/C [19]: 90.3% | viability, T/C [20]: 74.9% | viability, T/C [21]: 85.3% | viability, T/C [22]: 68.3% | viability, T/C [23]: 74.8% | viability, T/C [24]: 55% | viability, T/C [25]: 78.3% | viability, T/C [26]: 78.9% | viability, T/C [27]: 68.4% | viability, T/C [28]: 56.8% | viability, T/C [29]: 81.4% | viability, T/C [30]: 55.2% | viability, T/C [31]: 54.4% | viability, T/C [32]: 73.1% | viability, T/C [33]: 52.8% | viability, T/C [34]: 70.8% | viability, T/C [35]: 68.3% | viability, T/C [36]: 53% | viability, T/C [37]: 75.5% | viability, T/C [38]: 77.7% | viability, T/C [39]: 68.8% | viability, T/C [40]: 68.4% | viability, T/C [41]: 60.9% | viability, T/C [42]: 40.6%

COc1ccc([C@@H](O)c2cc(-c3ncnc4cc(N5CCOCC5)ccc34)c(F)cc2Cl)nn1
viability, T/C (compound 0.0316 µM): 103% and 84.3% | viability, T/C (compound 0.1 µM): 106% and 94.1% | viability, T/C (compound 0.316 µM): 109% and 95.4% | viability, T/C (compound 1 µM): 99.8% and 91.2% | viability, T/C (compound 3.16 µM): 96.1% and 92.5% | viability, T/C (compound 10 µM): 83.5% and 79.1% | IC50 (curve of compound): > 10 µM

CC1(C)CCC(CN2CCN(c3ccc(C(=O)NS(=O)(=O)c4ccc(NCC5CCOCC5)c([N+](=O)[O-])c4)c(Oc4cnc5[nH]ccc5c4)c3)CC2)=C(c2ccc(Cl)cc2)C1
viability, T/C (compound 0.0316 µM): 99.6% and 96.4% | viability, T/C (compound 0.1 µM): 98.9% and 93.4% | viability, T/C (compound 0.316 µM): 99.4% and 96.6% | viability, T/C (compound 1 µM): 95.5% and 98.7% | viability, T/C (compound 3.16 µM): 111% and 105% | viability, T/C (compound 10 µM): 12.8% and 25.5% | IC50 (curve of compound): 6.15 µM and 6.78 µM

Reference: PubChem BioAssay AID2060613 (Molecular Pharmacology Branch, DTP, NCI, 2025)
